# In BindingDB's records for doi:10.1097/00001813-200302000-00012 (Korea Research Institute of Chemical Technology, 2003):
# What was measured:
# [1] = TP_TRANSPORTER: drug resistance (paclitaxel) in MES-SA/DX5 cells
# [2] = TP_TRANSPORTER: drug resistance (paclitaxel) in HCT15/CL02 cells
Structure (SMILES),IC50 [1] [µM],IC50 [2] [µM]
COc1ccc(CCN(C)CCC[C@@]2(C#N)CCc3c2ccc(OC)c3OC)cc1OC,6.63,3.04
COc1ccc(CCN(C)CCC[C@]2(C#N)CCc3c2ccc(OC)c3OC)cc1OC,7.65,3.11
